From patent US20250127896A1, “CHIMERIC TIM4 RECEPTORS AND USES THEREOF” (CERO THERAPEUTICS HOLDINGS, INC., priority 2021, published 2025)

B1: CER 1183: wildtype human Tim4, SEQ ID NO:20; control molecule lacking intracellular T-cell signaling domains (protein)
chain: MSKEPLILWLMIEFWWLYLTPVTSETVVTEVLGHRVTLPCLYSSWSHNSNSMCWGKDQCPYSGCKEALIRTDGMRVTSRKSAKYRLQGTIPRGDVSLTILNPSESDSGVYCCRIEVPGWFNDVKINVRLNLQRASTTTHRTATTTTRRTTTTSPTTTRQMTTTPAALPTTVVTTPDLTTGTPLQMTTIAVFTTANTCLSLTPSTLPEEATGLLTPEPSKEGPILTAESETVLPSDSWSSVESTSADTVLLTSKESKVWDLPSTSHVSMWKTSDSVSSPQPGASDTAVPEQNKTTKTGQMDGIPMSMKNEMPISQLLMIIAPSLGFVLFALFVAFLRGKLMETYCSQKHTRLDYIGDSKNVLNDVQHGREDEDGLFTL

Key:
Kuramochi cells [1] = details: 1.56 or 25 μM Niraparib, 48 hours
Procedure: (§1) FIG. 7A: Flow cytometry measurement of surface PtdSer. Kuramochi cells were treated with 1.56 or 25 μM Niraparib or with equivalent volume of DMSO (control). 48 hours later samples were trypsinized and stained using a Tim4-Fc followed by a fluorescently-labeled secondary antibody to the Tim4-Fc. FIG. 7B: Kuramochi cells pre-treated for ˜20 hours with 1.56 μM Niraparib were co-cultured with pCTX133 and Untransduced CD4 T cells from donor 32 at a 2:1 T cell: Kuramochi ratio and a final Niraparib concentration of 1.56 μM. […] All data were collected via IncuCyte.
(§2) In ovarian tumors, poly (ADP-ribose) polymerase (PARP) inhibitors, such as Niraparib, are clinically approved drugs which target DNA damage response pathways. Responses are rarely complete, with relapse common after treatment. To induce Ptd-Ser exposure, BRCA-2 mutated Kuramochi cell line was treated with therapeutic doses of the PARP inhibitor Niraparib.

Kuramochi cells [2] = assay: Kuramochi co-culture with chimeric Tim4 receptor T cells and Niraparib (IncuCyte); type: cell-based; details: Niraparib alone
Procedure: as §1, §2

[3] = test system: A2780 ovarian cancer cells; assay: Viability and phosphatidylserine exposure of A2780 cells treated with PARP inhibitors (annexin V); type: cell-based, human; details: for effective concentration that killed 25% cells (EC25): A2780 cells; for phosphatidylserine exposure on viable A2780 cells: subtherapeutic doses, 96 hours
Procedure: Viability (FIG. 31A) and phosphatidylserine (PS) exposure (FIG. 31B) of A2780 cells treated with niraparib or olaparib (both at 0.25 to 6 μM) at 96 hours.
(§3) At day 0, media was exchanged and donor T cells from three subjects (FIG. 28) transduced with CER-1234, CER-1236, or control CER-1183 (FIG. 27A) were added at various effector:target ratios to A2780 cells treated with PARPi to assess chimeric Tim4 receptor-T cell activation, cytokine production, proliferation, and cytotoxic responses. Chimeric Tim4 receptor-T cells immunophenotyping and bulk supernatant analysis was performed on day 2 and day 5 following initiation of co-culture.
Phosphatidylserine exposure on A2780 ovarian cancer cells upon treatment with the small molecule PARP inhibitors niraparib or olaparib was evaluated by annexin v staining to determine the appropriate drug dose. Phosphatidylserine targeting Tim-4 CER constructs designed to enhance cytotoxicity and target-dependent tumor cell fragment uptake were engineered. […] CER-1250 has the same intracellular signaling domains as CER1236 but has a mutated IgV domain with AAAA substitution to abrogate phosphatidylserine binding. Niraparib (0.5 μM) and olaparib (1.5 μM) were used to expose phosphatidylserine on the surface of A2780 cells for CER T cell recognition and cytotoxicity, T-cell activation, and cytokine responses were evaluated. Uptake of antigen by CER-1236 T cells was modeled with human papilloma virus E7 antigen-expressing squamous carcinoma (SCC152) TMEM30A phospholipid flippase knockout cells. […] E7 antigen presentation by CER-1236 T cells was assayed by surface expression of HLA-DR, a marker of T cell activation, on autologous HLA-A2-restricted E7 TCR T cells.
The induction of surface phosphatidylserine expression on A2780 ovarian cells treated with the PARP inhibitors olaparib and niraparib was measured by flow cytometry (FC) using annexin V.

A2780 cells = details: compared to untreated
Procedure: FIG. 34B: At 120 hours, the ratio of cells remaining in treated samples compared to untreated A2780 samples was quantified using the incucyte data from FIG. 34A. FIG. 34C: Proliferation of CER T cells in co-culture assays.
as §3
CER T-cell cytotoxic function was evaluated using the Incucyte® live-cell analysis system in co-culture assays with A2780 cells. A2780 cells engineered to constitutively express mCherry were pretreated with 1.5 μM olaparib, 0.5 μM niraparib or no drug for 96 hours. CER T cells (expanded for 6 days after transduction) in T-cell optimizer media containing IL-2, IL-7, and IL-15 were co-cultured with A2780 cells at an effector:target (E:T) ratio of 1:2 in the presence of the same concentrations of olaparib or niraparib.

Jeko1 TMEM30A−/− cells = assay: Uptake/engulfment of pHrodo-labeled JeKo-1 PS+ (TMEM30A−/−) cells by CER T cells; type: cell-based; details: pHrodo label, in vitro co-culture
Procedure: FIG. 20: FACs and imaging-based detection of pHrodo dye-labeled tumor cell phagocytosis and endocytosis.
Statistical analysis was performed using 2-way ANOVA.

REC-1 cells [4] = assay: Phagocytosis of pHrodo-labeled ibrutinib-treated REC-1 cells by CER T cells; type: cell-based; details: REC-1 pretreated 10 μM ibrutinib, 16 and 40 hours of co-culture
Excerpt: FIG. 13A: Representative flow cytometry histograms showing engulfment of pHrodo red-labeled REC-1 target cells by CER1234, CER1161, and CER1183 T cells. FIG. 13B: Graphical summary of flow cytometry data showing engulfment of pHrodo red-labeled REC-1 target cells by CER1234, CER1161, and CER1183 T cells. * P<0.01, ** P<0.001, *** P<0.0001; mean+SD, n=4. FIG. 13C: Representative fluorescence microscopy images (at 40×) showing engulfment of pHrodo red-labeled REC-1 target cells by CER1234, CER1161, and CER1183 T cells. FIG. 13D: Engulfed pHrodo-green-labeled REC-1 tumor fragments co-localize into Lyso-tracker red-labeled lysosomes.
Phagocytosis was assessed in co-culture assays of REC-1 cells with CER T cells. […] The percentage of pHrodo red-positive cells was determined by flow cytometry after 16 or 40 hours of co-culture. The localization of tumor fragments in CER T-cell lysosomal compartments was assessed in a separate experiment with REC-1 cells labeled with pHrodo green; following co-culture, all cells were labeled with Lyso-tracker red. Visualization of engulfment was performed by fluorescence microscopy. 1-way ANOVA with Dunnett's post hoc test was performed compared with untransduced T cells.

REC-1 cells [5] = assay: CER T cell cytotoxicity against REC-1 mCherry cells with ibrutinib (Incucyte); type: cell-based; details: REC-1 cells
Excerpt: FIG. 38: CER1236 T cells have enhanced and more complete cytotoxic effect against Ibrutinib-treated REC-1 MCL cells but not untreated REC-1 MCL cells.
Ibrutinib was washed off prior to co-culture with CER T cells. […] Total fluorescence of REC-1 mCherry cells decreased as cytotoxicity occurred.

REC-1 cells [6] = assay: T-cell activation markers PD-1 and 4-1BB in co-culture with REC-1 cells (flow cytometry); type: cell-based; details: co-culture with REC-1 cells in the presence of 0.5 μM ibrutinib, 96 hours
Procedure: FIGS. 15A-15B: Induction of Cell-Surface Markers of T-Cell Activation in Ibrutinib-Treated Co-Cultures of CER1183 and CER1234 T cells and REC-1 Target Cells. Samples depicted in bar graphs from left to right, untransduced, CER-1183, and CER-1234. FIG. 15A: PD-1 expression in co-cultures. FIG. 15B: 4-1BB expression in co-cultures.
T-cell activation markers programmed death-1 (PD-1) and 4-1BB were evaluated on viable CD3+ T cells by flow cytometry using commercially available fluorochrome-conjugated antibodies. […] Assays were conducted 96 hours after initiation of co-culture of CER T cells with REC-1 cells.

REC-1 cells [7] = assay: Cytokine induction in CER T / REC-1 co-cultures (multiparametric ELISA); type: cell-based; details: co-culture with REC-1 cells, 0.5 μM ibrutinib, 96 hours
Procedure: FIGS. 16A-16H: Induction of Cytokines in Ibrutinib-Treated Co-Cultures of CER1183 and CER1234 T cells and REC-1 Target Cells. Samples depicted in bar graphs from left to right, untransduced, CER-1183, and CER-1234. FIG. 16A: TNFα induction. FIG. 16B: IL-2 induction. FIG. 16C: IFNγ. FIG. 16D: IL-5 induction. FIG. 16E: IL-6 induction. FIG. 16F: IL-10 induction. FIG. 16G: IL-4 induction. FIG. 16H: granzyme B induction.
Cytokine induction was assessed by multiparametric ELISA using conditioned supernatants harvested after 96 hours in the cytotoxicity assay described above.
(§4) CER T-cell activation was assessed by measuring induction of IFN-gamma by plate- and cell-based assays. Single induction plate assay: varying concentrations of phosphatidylserine (PS) or phosphatidylethanolamine (PE), a control membrane phospholipid not recognized by wild type TIM-4 (wtTIM-4), were coated onto high-binding tissue culture plates. CER T cells were added and IFN-γ levels were measured 24 hours after ligand exposure by ELISA. EC50 concentrations were determined by nonlinear regression (agonist vs. response-variable slope (4 parameters)). Induction by recursive stimulation plate assay: CER T cells were added to phosphatidylserine coated plates (2.5-20 μg/mL PS coating). Five days later, CER T cells were transferred to uncoated plates with fresh T cell optimizer media for 24 hours. Then, CER T cells were transferred again to a fresh PS coated plate. Supernatant was collected to assess IFN-γ induction by ELISA at various timepoints during re-stimulation (24, 72, and 120 hours). Cell-based assay: cytokine induction was assessed by multiparametric ELISA using conditioned supernatants harvested after 120 hours from the cytotoxicity assay described below.

phosphatidylserine (PS) = assay: Single induction plate assay: IFN-γ by CER T cells on plate-bound phosphatidylserine (ELISA); type: cell-based; details: plate-bound PS
Excerpt: (§5) FIGS. 19A-19C: CER T cells are activated and produce IFN-γ in response to phosphatidylserine engagement in a cell-free in vitro system. FIG. 19A: IFN-γ production in response phosphatidylserine (PS). IFN-γ production was induced in CER-1236 and CER-1234 T cells stimulated with PS (FIG. 19A), but not with phosphatidylethanolamine (PE) (FIG. 19B). […] FIG. 19C: CER1236 T cells are capable of recursive stimulation in vitro. Recursive IFN-γ induction with 3 serial stimulations at the indicated time points following a 24-hour rest after the first stimulation.
as §5, with “FIG. 33A-33C:” for “FIGS. 19A-19C:”, “33A:” for “19A:”, “33A),” for “19A),”, “33B).” for “19B).”, “33C:” for “19C:”
FIG. 44 are graphs showing IFNγ production in CER1234 T cells (left) or CER1236 T cells (right) from three donors in response to titrating doses of plate-bound phosphatidylserine.
FIG. 45 are graphs showing IFNγ production in CER1234 T cells or CER1236 T cells by donor in response to increasing doses of plate-bound phosphatidylserine.
FIG. 46 are graphs showing IFNγ production in CER1234 T cells or CER1236 T cells by donor in response to increasing doses of plate-bound phosphatidylserine at day 14 post-thaw.
FIG. 47 are graphs showing T cell expansion (left), IFNγ production (center), and cell viability (right) in CER1236 T cells in response to increasing doses of plate-bound phosphatidylserine.
FIG. 48 are graphs showing T cell expansion (left), IFNγ production (center), and cell viability (right) in CER1234 T cells in response to increasing doses of plate-bound phosphatidylserine.
as §4
T cells obtained from three different donors were transduced with CER1234 or CER1236 and incubated on titrating doses of plate-bound phosphatidylserine.
24 hour IFNγ stimulation by plate-bound phosphatidylserine aligns with day 5 post-activation expansion for CER1236 T cells. […] 24 hour IFNγ stimulation by plate-bound phosphatidylserine aligns with day 5 post-activation expansion for CER1234 T cells.

Molecule | effective concentration that killed 25% cells (EC25) [3] [µM] | phosphatidylserine exposure on viable A2780 cells [3] | A2780 cells eliminated, single agent (A2780 cells) [%] | uptake/engulfment of JeKo-1 PS+ (TMEM30A−/−) tumor cell fragments (Jeko1 TMEM30A−/− cells) | other results
NC(=O)c1cccc2cn(-c3ccc([C@@H]4CCCNC4)cc3)nc12 [Niraparib] | 0.5 | induce phosphatidylserine exposure on viable A2780 cells | 23 | – | surface PtdSer (membrane phospholipid symmetry) (Kuramochi cells [1]): elicits changes in membrane phospholipid symmetry, in a dose dependent manner; growth of Kuramochi cells (Kuramochi cells [2]): effective in inhibiting growth of Kuramochi cells
CO/C1=C\C(C)=C\[C@@H](C)[C@@H](O)[C@@H](C)C/C(C)=C/C=C/[C@H](OC)[C@@H]([C@@H](C)[C@@H](O)[C@H](C)[C@@]2(O)C[C@@H](O)[C@H](C)[C@@H](C(C)C)O2)OC1=O [Bafilomycin A, reference compound] | – | – | – | blocked tumor cell fragment uptake | –
C=C1[C@@H](C)[C@H]2[C@H](Cc3ccccc3)NC(=O)[C@]23[C@H](OC(C)=O)/C=C/[C@@](C)(O)C(=O)[C@@H](C)C/C=C/[C@H]3[C@@H]1O [Cytochalasin D, reference compound] | – | – | – | blocked tumor cell fragment uptake | –
O=C(c1cc(Cc2n[nH]c(=O)c3ccccc23)ccc1F)N1CCN(C(=O)C2CC2)CC1 [olaparib] | 1.5 | induce phosphatidylserine exposure on viable A2780 cells | 34 | – | –
CER1161: Tim4 binding domain-CD28tm-CD28icd-CD3zICD, SEQ ID NO:21 | – | – | – | – | engulfment of pHrodo red+ target cells (REC-1 cells [4]): increased engulfment of pHrodo red+target cells relative to untransduced T cells
B1 | – | – | – | – | tumor cell killing in combination with ibrutinib (REC-1 cells [5]): no additive effect with ibrutinib; PD-1 and 4-1BB expression on the T-cell surface (REC-1 cells [6]): not increased; cytokine induction: TNF-α, IFN-γ, IL-10, IL-5, granzyme B (REC-1 cells [7]): not induced; IFN-γ production in response to phosphatidylserine (phosphatidylserine (PS)): did not induce IFN-γ
